The source of these data is US10072017B2, “Compounds and methods for the treatment of cystic fibrosis” (Flatley Discovery Lab, LLC, priority 2015, dated 2018).

In this assay the target is T1, CFTR (Homo sapiens, UniProt P13569, DEL508-508).
T1 construct: Primary CF airway epithelial cells were obtained from the UNC Cystic Fibrosis Tissue Procurement and Cell Culture Core; host or cells: primary CF airway epithelial cells
Briefly: Equivalent current assay in Primary CF airway epithelial cells (NAUC). Conditions: 24 h, normalized to VX809 (3 μM) positive control; for Nauc @ 3 μM: 3 μM test compound; for Nauc @ 10 μM: 10 μM test compound. It counts as cell-based. The method, boiled down:
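NAUC is the area under the curve from forskolin (10 μM) plus VX770 (1 μM) addition to CFTR-172 (20 μM) block, after benzamil (5 μM). It is corrected for vehicle and scaled to 3 μM VX809 as 1.0 and DMSO as 0.0. Cells were exposed for 24 h to compounds with VX809; medians of ≥4 replicates were fitted sigmoidally.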

T1 sequence (P13569 with tags, fused parts or gaps DEL508-508): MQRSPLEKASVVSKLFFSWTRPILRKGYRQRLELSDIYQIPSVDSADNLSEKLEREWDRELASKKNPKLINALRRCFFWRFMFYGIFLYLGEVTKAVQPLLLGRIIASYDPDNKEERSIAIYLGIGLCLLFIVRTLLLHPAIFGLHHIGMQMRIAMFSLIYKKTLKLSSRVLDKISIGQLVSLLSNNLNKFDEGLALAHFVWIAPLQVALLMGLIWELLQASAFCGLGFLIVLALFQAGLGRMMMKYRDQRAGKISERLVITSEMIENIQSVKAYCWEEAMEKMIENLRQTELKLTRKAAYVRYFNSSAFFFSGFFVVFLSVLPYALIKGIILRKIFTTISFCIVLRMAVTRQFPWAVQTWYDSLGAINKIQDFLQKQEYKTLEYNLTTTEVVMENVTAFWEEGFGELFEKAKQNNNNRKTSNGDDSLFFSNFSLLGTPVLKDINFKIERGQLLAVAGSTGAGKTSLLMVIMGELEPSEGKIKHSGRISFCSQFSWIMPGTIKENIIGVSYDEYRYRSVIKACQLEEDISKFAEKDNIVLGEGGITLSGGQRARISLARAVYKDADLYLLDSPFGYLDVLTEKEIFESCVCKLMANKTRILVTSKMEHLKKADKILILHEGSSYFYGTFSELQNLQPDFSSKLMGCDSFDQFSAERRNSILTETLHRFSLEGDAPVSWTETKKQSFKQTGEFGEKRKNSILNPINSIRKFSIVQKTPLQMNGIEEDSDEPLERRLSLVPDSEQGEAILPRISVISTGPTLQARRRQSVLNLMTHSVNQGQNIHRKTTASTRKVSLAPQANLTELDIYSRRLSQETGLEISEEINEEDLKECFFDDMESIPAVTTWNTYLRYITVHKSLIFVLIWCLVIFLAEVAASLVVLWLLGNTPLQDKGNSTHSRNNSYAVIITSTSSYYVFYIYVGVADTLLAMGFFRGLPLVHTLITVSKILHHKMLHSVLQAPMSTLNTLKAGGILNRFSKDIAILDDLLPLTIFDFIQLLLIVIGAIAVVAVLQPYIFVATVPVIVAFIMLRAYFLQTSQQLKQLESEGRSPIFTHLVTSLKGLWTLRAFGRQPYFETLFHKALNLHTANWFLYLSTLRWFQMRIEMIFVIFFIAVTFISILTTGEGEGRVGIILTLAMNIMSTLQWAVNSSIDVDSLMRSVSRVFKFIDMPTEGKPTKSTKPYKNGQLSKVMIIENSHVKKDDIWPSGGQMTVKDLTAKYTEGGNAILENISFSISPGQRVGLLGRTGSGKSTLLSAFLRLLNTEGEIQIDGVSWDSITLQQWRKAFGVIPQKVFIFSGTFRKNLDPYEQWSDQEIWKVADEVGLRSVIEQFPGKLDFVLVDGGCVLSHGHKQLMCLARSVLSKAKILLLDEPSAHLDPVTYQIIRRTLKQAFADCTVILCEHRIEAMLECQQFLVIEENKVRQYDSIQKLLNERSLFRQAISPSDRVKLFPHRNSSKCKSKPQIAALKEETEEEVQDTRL

With `COc1cc(Cl)cc(N2C(=O)C3C4CCCN4C4(C(=O)Nc5c(Cl)cc(Cl)cc54)C3C2=O)c1` (single isomer, unassigned) [Example 105], the “Nauc @ 3 μM” value is recorded as “++ (NAUC “++” refers to an observed NAUC 170-140% of positive control)” and the “Nauc @ 10 μM” value is recorded as “++ (NAUC “++” refers to an observed NAUC 170-140% of positive control)”.

For the molecule `[2H]C12C(=O)N(c3cc(Cl)cc(Cl)c3)C(=O)C1([2H])C1(C(=O)Nc3c(Cl)cc(Cl)cc31)N1CC(C)(C)CC12` (stereo not shown) [Example 147], the “Nauc @ 3 μM” value was “+++ (NAUC “+++” refers to an observed NAUC >170% of positive control)” and the “Nauc @ 10 μM” value is given as “+++ (NAUC “+++” refers to an observed NAUC >170% of positive control)”.

Turning to `C[C@]1(O)CC2C3C(=O)N(c4cc(Cl)cc(Cl)n4)C(=O)C3C3(C(=O)Nc4c(Cl)cc(Cl)cc43)N2C1` (stereo partly shown) [Example 223], the “Nauc @ 3 μM” value is “+ (NAUC “+” refers to an observed NAUC <140% of positive control)” and the “Nauc @ 10 μM” value is “+++ (NAUC “+++” refers to an observed NAUC >170% of positive control)”.

In the case of `O=C1C2C(Cc3ccccc3)NC3(C(=O)Nc4c(Cl)cc(Cl)cc43)C2C(=O)N1c1cc(Cl)cc(Cl)c1` (stereo not shown) [Example 154], the “Nauc @ 3 μM” value is “+++ (NAUC “+++” refers to an observed NAUC >170% of positive control)” and the “Nauc @ 10 μM” value is “+++ (NAUC “+++” refers to an observed NAUC >170% of positive control)”.

Regarding `Cc1cccc(CC2NC3(C(=O)Nc4c(Cl)cc(Cl)cc43)C3C(=O)N(c4cc(Cl)cc(Cl)c4)C(=O)C23)n1` (stereo not shown) [Example 238], the “Nauc @ 3 μM” value is given as “+ (NAUC “+” refers to an observed NAUC <140% of positive control)” and the “Nauc @ 10 μM” value was “++ (NAUC “++” refers to an observed NAUC 170-140% of positive control)”.

For the molecule `C[C@]1(O)CC2C3C(=O)N(c4cc(Cl)cc(Cl)c4)C(=O)C3C3(C(=O)Nc4c(Cl)cc(Cl)cc43)N2C1` (stereo partly shown) [Example 156], the “Nauc @ 3 μM” value was “++ (NAUC “++” refers to an observed NAUC 170-140% of positive control)” and the “Nauc @ 10 μM” value was “+++ (NAUC “+++” refers to an observed NAUC >170% of positive control)”.

As to `O=C1C2C3C[C@H](Cl)CN3C3(C(=O)Nc4c(Cl)cc(Cl)cc43)C2C(=O)N1c1cc(Cl)cc(Cl)c1` (single isomer, unassigned) [Example 88], the “Nauc @ 3 μM” value is given as “+ (NAUC “+” refers to an observed NAUC <140% of positive control)” and the “Nauc @ 10 μM” value was “+++ (NAUC “+++” refers to an observed NAUC >170% of positive control)”.

With `O=C1C2C3C[C@H](NS(=O)(=O)c4ccccc4)CN3C3(C(=O)Nc4c(Cl)cc(Cl)cc43)C2C(=O)N1c1cc(Cl)cc(Cl)c1` (single isomer, unassigned) [Example 58], the “Nauc @ 3 μM” value is on record as “++ (NAUC “++” refers to an observed NAUC 170-140% of positive control)” and the “Nauc @ 10 μM” value was “+++ (NAUC “+++” refers to an observed NAUC >170% of positive control)”.

Consider `CC1CC2C3C(=O)N(c4cc(Cl)cc(Cl)c4)C(=O)C3C3(C(=O)Nc4c(Cl)cc(Cl)cc43)N2C1` (stereo not shown) [Example 63], for which the “Nauc @ 3 μM” value was “+++ (NAUC “+++” refers to an observed NAUC >170% of positive control)” and the “Nauc @ 10 μM” value is “+++ (NAUC “+++” refers to an observed NAUC >170% of positive control)”.

In the case of `COc1cc(Cl)cc(N2C(=O)C3C4C[C@H](Cl)CN4C4(C(=O)Nc5c(Cl)cc(Cl)cc54)C3C2=O)c1` (single isomer, unassigned) [Example 111], the “Nauc @ 3 μM” value was “+++ (NAUC “+++” refers to an observed NAUC >170% of positive control)” and the “Nauc @ 10 μM” value was “+++ (NAUC “+++” refers to an observed NAUC >170% of positive control)”.

Regarding `O=C1C2C(Cl)(C(=O)N1c1cc(Cl)cc(Cl)c1)C1CCCN1C21C(=O)Nc2c(Cl)cc(Cl)cc21` (stereo not shown) [Example 89], the “Nauc @ 3 μM” value is reported as “+ (NAUC “+” refers to an observed NAUC <140% of positive control)” and the “Nauc @ 10 μM” value was “++ (NAUC “++” refers to an observed NAUC 170-140% of positive control)”.

In the case of `O=C1C2C3C[C@H](O)CN3C3(C(=O)Nc4c(Cl)cc(Cl)cc43)C2C(=O)N1c1cc(C(F)(F)F)cc(C(F)(F)F)c1` (stereo partly shown) [Example 43], the “Nauc @ 3 μM” value is listed as “++ (NAUC “++” refers to an observed NAUC 170-140% of positive control)” and the “Nauc @ 10 μM” value was “+++ (NAUC “+++” refers to an observed NAUC >170% of positive control)”.

Take `O=C1C2C3CCCN3C3(C(=O)Nc4c(Cl)cc(Cl)cc43)C2C(=O)N1CCCBr` (stereo not shown) [Example 48]: the “Nauc @ 3 μM” value is “++ (NAUC “++” refers to an observed NAUC 170-140% of positive control)” and the “Nauc @ 10 μM” value is given as “+ (NAUC “+” refers to an observed NAUC <140% of positive control)”.

As to `O=C1C2C3CCCN3C3(C(=O)Nc4c(Cl)cc(Cl)cc43)C2C(=O)N1c1ncc(Cl)s1` (stereo not shown) [Example 229], the “Nauc @ 3 μM” value is given as “+ (NAUC “+” refers to an observed NAUC <140% of positive control)” and the “Nauc @ 10 μM” value is on record as “++ (NAUC “++” refers to an observed NAUC 170-140% of positive control)”.

For the molecule `O=C1C2C3C[C@H](Cl)CN3C3(C(=O)Nc4c(Cl)cc(Cl)cc43)C2C(=O)N1c1cc(O)cc(Cl)c1` (stereo partly shown) [Example 81], the “Nauc @ 3 μM” value is “+ (NAUC “+” refers to an observed NAUC <140% of positive control)” and the “Nauc @ 10 μM” value is listed as “++ (NAUC “++” refers to an observed NAUC 170-140% of positive control)”.

Regarding `O=C1C2C3CC4(CC4)CN3C3(C(=O)Nc4c(Cl)cc(Cl)cc43)C2C(=O)N1c1cc(Cl)cc(Cl)c1` (single isomer, unassigned) [Example 191], the “Nauc @ 3 μM” value is on record as “+++ (NAUC “+++” refers to an observed NAUC >170% of positive control)” and the “Nauc @ 10 μM” value is given as “+++ (NAUC “+++” refers to an observed NAUC >170% of positive control)”.

Regarding `CC(=O)O[C@H]1CC2C3C(=O)N(c4cc(Cl)cc(Cl)c4)C(=O)C3C3(C(=O)N(C(C)=O)c4c(Cl)cc(Cl)cc43)N2C1` (stereo partly shown) [Example 69], the “Nauc @ 3 μM” value is recorded as “+++ (NAUC “+++” refers to an observed NAUC >170% of positive control)” and the “Nauc @ 10 μM” value is “+ (NAUC “+” refers to an observed NAUC <140% of positive control)”.

For the molecule `O=C1C2CN(C3CCCC3)C3(C(=O)Nc4c(Cl)cc(Cl)cc43)C2C(=O)N1c1cc(Cl)cc(Cl)c1` (stereo not shown) [Example 32], the “Nauc @ 3 μM” value is listed as “++ (NAUC “++” refers to an observed NAUC 170-140% of positive control)” and the “Nauc @ 10 μM” value was “+++ (NAUC “+++” refers to an observed NAUC >170% of positive control)”.

In the case of `COc1c(Cl)cc(N2C(=O)C3C4CC(C)(C)CN4C4(C(=O)Nc5c(Cl)cc(Cl)cc54)C3C2=O)cc1Cl` (single isomer, unassigned) [Example 141], the “Nauc @ 3 μM” value is “+ (NAUC “+” refers to an observed NAUC <140% of positive control)” and the “Nauc @ 10 μM” value is “++ (NAUC “++” refers to an observed NAUC 170-140% of positive control)”.

Turning to `COc1cc(Cl)cc(N2C(=O)C3C4CC(=C(F)F)CN4C4(C(=O)Nc5c(Cl)cc(Cl)cc54)C3C2=O)c1` (single isomer, unassigned) [Example 139], the “Nauc @ 3 μM” value is listed as “++ (NAUC “++” refers to an observed NAUC 170-140% of positive control)” and the “Nauc @ 10 μM” value is “+ (NAUC “+” refers to an observed NAUC <140% of positive control)”.

As for `COc1cc(Cl)cc(N2C(=O)C3C4CC(=C(F)F)CN4C4(C(=O)Nc5c(Cl)cc(Cl)cc54)C3C2=O)c1` (single isomer, unassigned) [Example 138], the “Nauc @ 3 μM” value is on record as “+++ (NAUC “+++” refers to an observed NAUC >170% of positive control)” and the “Nauc @ 10 μM” value is recorded as “+ (NAUC “+” refers to an observed NAUC <140% of positive control)”.

Take `CC(=O)Oc1c(Cl)cc(Cl)cc1N1C(=O)C2C3C[C@H](Cl)CN3C3(C(=O)Nc4c(Cl)cc(Cl)cc43)C2C1=O` (stereo partly shown) [Example 93]: the “Nauc @ 3 μM” value is on record as “++ (NAUC “++” refers to an observed NAUC 170-140% of positive control)” and the “Nauc @ 10 μM” value is given as “+++ (NAUC “+++” refers to an observed NAUC >170% of positive control)”.

With `O=C1C2C3CCCN3C3(C(=O)Nc4c(Cl)cccc43)C2C(=O)N1c1cc(Cl)cc(Cl)c1` (stereo not shown) [Example 75], the “Nauc @ 3 μM” value was “++ (NAUC “++” refers to an observed NAUC 170-140% of positive control)” and the “Nauc @ 10 μM” value was “+ (NAUC “+” refers to an observed NAUC <140% of positive control)”.
